Molecules are shown by their SMILES.

For one test, the target named is T1, VACV D10 (Vaccinia virus, UniProt P04312).
T1 construct: made in house
Format: biochemical.

A further test concerns the target T2, human Dcp1/2 complex (Homo sapiens, UniProt Q8IU60).
T2 construct: His-tag; made in house; host or cells: E. coli BL21(DE3) RIL
Type of test: biochemical. The conditions noted are these: 11 nM hDcp1/2, inhibitor up to 100 μM, 37 °C, 1 h.

For `CC[C@H](CO)Nc1nc(NCc2ccccc2)c2ncn(C(C)C)c2n1` [seliciclib, reference compound], the “inhibitory activity toward D10” value against VACV D10 was “very low inhibitory activity”. For the same compound, at human Dcp1/2 complex, the “inhibitory activity toward Dcp1/2” value is “very low inhibitory activity”.

Values taken from paper PMC9207806 (ACS Chemical Biology, 2022).
